Data as given in publication PMC4440585 (Biochemistry, 2015).

Molecular target: mitochondrial complex I (Rattus norvegicus, UniProt A6K8N6+P03889+Q641Y2)
Assay: NADH oxidation at […] nm, NADH:ubiquinone-1 activity of solubilized mitochondria
Format: biochemical
Conditions: read-out: % inhibition at 25 mM

Compound: CN(C)C(=N)NC(=N)N [metformin]
- inhibition at 25000 µM: 12.1%
